Test results published in patent US11059834B2, “Macrocyclic immunomodulators” (CHEMOCENTRYX, INC., priority 2017, dated 2021).
pIC50: −log10 of the molar value.

Molecular target: human PD-L1 / Human PD-1 (Homo sapiens (Human), UniProt Q9NZQ7)
Experiment: Enzyme-Linked Immunosorbent Assay (ELISA), PD-1/PD-L1 binding
Conditions: plate-coated human PD-L1, biotinylated human PD-1, absorbance at 450 nm
Method: 96 Well plates were coated with 1 μg/mL of human PD-L1 (obtained from R&D) in PBS overnight at 4° C. The wells were then blocked with 2% BSA in PBS (W/V) with 0.05% TWEEN-20 for 1 hour at 37° C. The plates were washed 3 times with PBS/0.05% TWEEN-20 and the compounds were serial diluted (1:5) in dilution medium and added to the ELISA plates. Human PD-1 and biotin 0.3 μg/mL (ACRO Biosystems) were added and incubated for 1 hour at 37° C. then washed 3 times with PBS/0.05% TWEEN-20. A second block was performed with 2% BSA in PBS (W/V)/0.05% TWEEN-20 for 10 min at 37° C. and was washed 3 times with PBS/0.05% TWEEN-20. Streptavidin—HRP was added for 1 hour at 37° C. then washed 3 times with PBS/0.05% TWEEN-20. TMB substrate was added and reacted for 20 min at 37° C. A stop solution (2 N aqueous H2SO4) was added. The absorbance was read at 450 nm using a micro-plate spectrophotometer.
Compounds in Table 1 were prepared by methods as described in the Examples and evaluated according to the assay above.

human PD-L1 / Human PD-1, sequence (Q9NZQ7 19-239): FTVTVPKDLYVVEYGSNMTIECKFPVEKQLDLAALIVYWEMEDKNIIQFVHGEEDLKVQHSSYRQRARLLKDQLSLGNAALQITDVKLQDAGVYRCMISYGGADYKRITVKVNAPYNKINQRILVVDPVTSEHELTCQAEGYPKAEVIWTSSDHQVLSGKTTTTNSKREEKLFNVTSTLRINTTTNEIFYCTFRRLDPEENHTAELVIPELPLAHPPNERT

pIC50: 4.70 to 6.30
SMILES: Cc1c(COc2cc3c(cc2Cl)CO[C@H](C(=O)O)CCNC(=O)c2cncc(c2)CN3)cccc1-c1ccccc1 [Compound 1.009]
